Test: xn = mol fraction of the nth substance listed
Conditions: 303.15 K, 100 kPa

CCn1cc[nH+]c1.O=S(=O)([N-]S(=O)(=O)C(F)(F)F)C(F)(F)F + c1c[nH]cn1
Conditions	electrical conductivity [S/m]	viscosity [mPa·s]
x1 = 0.194	0.891	–
x1 = 0.252	–	20.7
x1 = 0.333	–	23
x1 = 0.385	0.616	–
x1 = 0.501	–	25.3
x1 = 0.597	0.587	–
x1 = 0.601	–	25.6
x1 = 0.671	–	27.7
x1 = 0.79	0.556	–
x1 = 0.802	–	24.3
x1 = 0.889	0.512	–
x1 = 0.901	–	26.7
x1 = 1	–	38.8
